Experimental data from the NIST ThermoML archive (doi:10.1021/acs.jced.8b00591).

Test: xn = mol fraction of the nth substance listed
Conditions: 101.3 kPa, Liquid; for viscosity: Falling or rolling sphere viscometry; for mass density: Vibrating tube method

CCn1cc[n+](C)c1.O=S(=O)([N-]S(=O)(=O)C(F)(F)F)C(F)(F)F + COC(=O)OC
Conditions	mass density [kg/m3]	viscosity [mPa·s]
288.15 K, x1 = 0.0989	1199.15	1.579
288.15 K, x1 = 0.1983	1282.85	2.913
288.15 K, x1 = 0.2973	1342.57	4.862
288.15 K, x1 = 0.3958	1387.69	7.561
288.15 K, x1 = 0.496	1423.97	11.21
288.15 K, x1 = 0.5954	1452.55	16.89
288.15 K, x1 = 0.6967	1476.87	22.56
288.15 K, x1 = 0.7982	1497.52	30.07
288.15 K, x1 = 0.9004	1514.5	38.55
288.15 K, x1 = 1	1528.55	49.41
293.15 K, x1 = 0.0989	1193.1	1.451
293.15 K, x1 = 0.1983	1277.11	2.637
293.15 K, x1 = 0.2973	1337.02	4.332
293.15 K, x1 = 0.3958	1382.28	6.635
293.15 K, x1 = 0.496	1418.62	9.698
293.15 K, x1 = 0.5954	1447.28	14.58
293.15 K, x1 = 0.6967	1471.62	19.02
293.15 K, x1 = 0.7982	1492.37	25.12
293.15 K, x1 = 0.9004	1509.39	31.87
293.15 K, x1 = 1	1523.47	40.36
298.15 K, x1 = 0.0989	1187.03	1.348
298.15 K, x1 = 0.1983	1271.35	2.4
298.15 K, x1 = 0.2973	1331.47	3.884
298.15 K, x1 = 0.3958	1376.85	5.878
298.15 K, x1 = 0.496	1413.28	8.484
298.15 K, x1 = 0.5954	1442.02	12.53
298.15 K, x1 = 0.6967	1466.42	16.66
298.15 K, x1 = 0.7982	1487.23	21.25
298.15 K, x1 = 0.9004	1504.28	26.71
298.15 K, x1 = 1	1518.39	33.52
303.15 K, x1 = 0.0989	1180.95	1.25
303.15 K, x1 = 0.1983	1265.59	2.195
303.15 K, x1 = 0.2973	1325.91	3.507
303.15 K, x1 = 0.3958	1371.44	5.241
303.15 K, x1 = 0.496	1407.96	7.472
303.15 K, x1 = 0.5954	1436.78	10.8
303.15 K, x1 = 0.6967	1461.24	14.52
303.15 K, x1 = 0.7982	1482.09	18.37
303.15 K, x1 = 0.9004	1499.19	22.66
303.15 K, x1 = 1	1513.34	28.35
308.15 K, x1 = 0.0989	1174.86	1.162
308.15 K, x1 = 0.1983	1259.83	2.019
308.15 K, x1 = 0.2973	1320.35	3.177
308.15 K, x1 = 0.3958	1366.03	4.706
308.15 K, x1 = 0.496	1402.66	6.64
308.15 K, x1 = 0.5954	1431.55	9.382
308.15 K, x1 = 0.6967	1456.07	12.62
308.15 K, x1 = 0.7982	1476.98	16.22
308.15 K, x1 = 0.9004	1494.12	19.42
308.15 K, x1 = 1	1508.3	24.15
313.15 K, x1 = 0.0989	1168.75	1.086
313.15 K, x1 = 0.1983	1254.07	1.865
313.15 K, x1 = 0.2973	1314.81	2.904
313.15 K, x1 = 0.3958	1360.63	4.247
313.15 K, x1 = 0.496	1397.36	5.946
313.15 K, x1 = 0.5954	1426.34	8.189
313.15 K, x1 = 0.6967	1450.93	10.96
313.15 K, x1 = 0.7982	1471.88	14.22
313.15 K, x1 = 0.9004	1489.06	17.21
313.15 K, x1 = 1	1503.28	20.76
318.15 K, x1 = 0.0989	1162.63	1.016
318.15 K, x1 = 0.1983	1248.3	1.729
318.15 K, x1 = 0.2973	1309.26	2.661
318.15 K, x1 = 0.3958	1355.23	3.831
318.15 K, x1 = 0.496	1392.08	5.358
318.15 K, x1 = 0.5954	1421.14	7.249
318.15 K, x1 = 0.6967	1445.79	9.578
318.15 K, x1 = 0.7982	1466.8	12.43
318.15 K, x1 = 0.9004	1484.02	15.16
318.15 K, x1 = 1	1498.27	17.9
323.15 K, x1 = 0.0989	1156.5	0.954
323.15 K, x1 = 0.1983	1242.54	1.608
323.15 K, x1 = 0.2973	1303.72	2.452
323.15 K, x1 = 0.3958	1349.85	3.512
323.15 K, x1 = 0.496	1386.81	4.857
323.15 K, x1 = 0.5954	1415.92	6.332
323.15 K, x1 = 0.6967	1440.67	8.381
323.15 K, x1 = 0.7982	1461.74	10.9
323.15 K, x1 = 0.9004	1479	13.29
323.15 K, x1 = 1	1493.28	15.93
328.15 K, x1 = 0.0989	1150.34	0.898
328.15 K, x1 = 0.1983	1236.76	1.501
328.15 K, x1 = 0.2973	1298.19	2.268
328.15 K, x1 = 0.3958	1344.47	3.224
328.15 K, x1 = 0.496	1381.55	4.421
328.15 K, x1 = 0.5954	1410.75	5.588
328.15 K, x1 = 0.6967	1435.57	7.456
328.15 K, x1 = 0.7982	1456.69	9.61
328.15 K, x1 = 0.9004	1474	11.68
328.15 K, x1 = 1	1488.31	14.26
